Columns and labels:
SF-539 = test: NCI one-dose SRB growth assay; assay type: cell-based; details: Homo sapiens; SF-539 (CNS Cancer), 10^-5 M, 48 h; read-out: % Growth Inhibition (GI %)
Method in brief: (§1)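 NCI primary one-dose screen: human tumor lines exposed to test agent (10^-5M, 48 h), then SRB protein staining; results reported as growth % versus no-drug controls.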

NCI-H460 = test: NCI one-dose SRB growth assay; assay type: cell-based; details: Homo sapiens; NCI-H460 (Non-Small Cell Lung Cancer), 10^-5 M, 48 h; read-out: % Growth Inhibition (GI %)
SF-268 = test: NCI one-dose SRB growth assay; assay type: cell-based; details: Homo sapiens; SF-268 (CNS Cancer), 10^-5 M, 48 h; read-out: % Growth Inhibition (GI %)
HCC-2998 = test: NCI one-dose SRB growth assay; assay type: cell-based; details: Homo sapiens; HCC-2998 (Colon Cancer), 10^-5 M, 48 h; read-out: % Growth Inhibition (GI %)
Method in brief: as §1

CCRF-CEM = test: NCI one-dose SRB growth assay; assay type: cell-based; details: Homo sapiens; CCRF-CEM (Leukemia), 10^-5 M, 48 h; read-out: % Growth Inhibition (GI %)
ACHN = test: NCI one-dose SRB growth assay; assay type: cell-based; details: Homo sapiens; ACHN (Renal Cancer), 10^-5 M, 48 h; read-out: % Growth Inhibition (GI %)
Method in brief: as §1

SNB-75 = test: NCI one-dose SRB growth assay; assay type: cell-based; details: Homo sapiens; SNB-75 (CNS Cancer), 10^-5 M, 48 h; read-out: % Growth Inhibition (GI %)
Method in brief: as §1

DU-145 [1] = test: NCI one-dose SRB growth assay; assay type: cell-based; details: Homo sapiens; DU-145 (Prostate Cancer), 10^-5 M, 48 h; read-out: % Growth Inhibition (GI %)
Method in brief: as §1

NCI-H322M = test: NCI one-dose SRB growth assay; assay type: cell-based; details: Homo sapiens; NCI-H322M (Non-Small Cell Lung Cancer), 10^-5 M, 48 h; read-out: % Growth Inhibition (GI %)
OVCAR-5 = test: NCI one-dose SRB growth assay; assay type: cell-based; details: Homo sapiens; OVCAR-5 (Ovarian Cancer), 10^-5 M, 48 h; read-out: % Growth Inhibition (GI %)
Method in brief: as §1

[2] = tested on: 60 human tumor cell line panel; test: NCI 60 cell line one-dose SRB primary anticancer assay; assay type: cell-based; details: 60 cell lines assay in one dose, 10µM (title; head prints 10.0 mM), 48 h; for inhibition at 10 µM: Homo sapiens, read-out: MGI % (Mean growth inhibition percentage)
Description: A primary anticancer assay was performed for an approximately 60 human tumor cell line panel derived from nine neoplastic diseases, in accordance with the protocol of the Drug Evaluation Branch, National Cancer Institute, Bethesda, MD (Monks A. et al., J. Natl. Cancer Inst 1991, 83, 757-766; Boyd M.R. and Paull K.D., Drug. Dev. Res. 1995, 34, 91-109; Shoemaker R.H., Nat. Rev. Cancer 2006, 6, 813-823). Briefly, tested compounds were added to the culture at a single concentration (10^-5M), and the cultures were incubated for 48 h. End point determinations were made with a protein binding dye, sulforhodamine B (SRB). The results for each tested compound were reported as the growth percentage of the treated cells when compared to that of the untreated control cells. The percentage growth was evaluated spectrophotometrically versus controls not treated with test agents.

NCI/ADR-RES = test: NCI five-dose SRB growth assay; assay type: cell-based; details: Homo sapiens; NCI/ADR-RES (Ovarian Cancer), 48 h
IGROV1 = test: NCI five-dose SRB growth assay; assay type: cell-based; details: Homo sapiens, IGROV-1; IGROV1 (Ovarian Cancer), 48 h
ovarian cancer = test: NCI five-dose SRB assay, subpanel average; details: 48 h; for GI50 / CC50: Homo sapiens; for GI50: read-out: GI50 (median growth inhibitory); for CC50: read-out: LC50 (median lethal); for TGI (total growth inhibitory): average over ovarian cancer subpanel, five concentrations
SK-OV-3 = test: NCI five-dose SRB growth assay; assay type: cell-based; details: Homo sapiens; SK-OV-3 (Ovarian Cancer), 48 h
DU-145 [3] = test: NCI five-dose SRB growth assay; assay type: cell-based; details: Homo sapiens; DU-145 (Prostate Cancer), 48 h
OVCAR-8 = test: NCI five-dose SRB growth assay; assay type: cell-based; details: Homo sapiens; OVCAR-8 (Ovarian Cancer), 48 h
SW-620 = test: NCI five-dose SRB growth assay; assay type: cell-based; details: Homo sapiens; SW-620 (Colon Cancer), 48 h
renal cancer = test: NCI five-dose SRB assay, subpanel average; details: 48 h; for GI50 / CC50: Homo sapiens; for GI50: read-out: GI50 (median growth inhibitory); for CC50: read-out: LC50 (median lethal); for TGI (total growth inhibitory): average over renal cancer subpanel, five concentrations
NSC lung cancer = test: NCI five-dose SRB assay, subpanel average; details: 48 h; for GI50 / CC50: Homo sapiens; for GI50: read-out: GI50 (median growth inhibitory); for CC50: read-out: LC50 (median lethal); for TGI (total growth inhibitory): average over NSC lung cancer subpanel, five concentrations
colon cancer = test: NCI five-dose SRB assay, subpanel average; details: 48 h; for GI50 / CC50: Homo sapiens; for GI50: read-out: GI50 (median growth inhibitory); for CC50: read-out: LC50 (median lethal); for TGI (total growth inhibitory): average over colon cancer subpanel, five concentrations
KM12 = test: NCI five-dose SRB growth assay; assay type: cell-based; details: Homo sapiens; KM12 (Colon Cancer), 48 h
T-47D = test: NCI five-dose SRB growth assay; assay type: cell-based; details: Homo sapiens, T47D; T-47D (Breast Cancer), 48 h
SK-MEL-5 = test: NCI five-dose SRB growth assay; assay type: cell-based; details: Homo sapiens; SK-MEL-5 (Melanoma), 48 h
melanoma = test: NCI five-dose SRB assay, subpanel average; details: 48 h; for GI50 / CC50: Homo sapiens; for GI50: read-out: GI50 (median growth inhibitory); for CC50: read-out: LC50 (median lethal); for TGI (total growth inhibitory): average over melanoma subpanel, five concentrations
UACC-62 = test: NCI five-dose SRB growth assay; assay type: cell-based; details: Homo sapiens; UACC-62 (Melanoma), 48 h
[4] = tested on: full panel of about 60 human tumor cell lines; test: NCI five-dose SRB assay, full panel mean; details: 48 h; for CC50 / GI50: Homo sapiens; for CC50: 60 cell, read-out: LC50 MG-MID (Full panel mean-graph midpoint); for GI50: read-out: GI50 MG-MID (Full panel mean-graph midpoint); for TGI MG-MID (Full panel mean-graph midpoint): five concentrations

For O=C(O)c1cn(C2CC2)c2cc(N3CCN(S(=O)(=O)c4ccc(Cl)cc4Cl)CC3)c(F)cc2c1=O [Compound 2b], the inhibition at 10 µM (SF-539) was < 10%, the inhibition at 10 µM (NCI-H460) was < 10% and the inhibition at 10 µM (SF-268) was 16.4%. The inhibition at 10 µM (HCC-2998) was < 10%, the inhibition at 10 µM (CCRF-CEM) was 19% and the inhibition at 10 µM (ACHN) was 14.9%. For the same molecule, the inhibition at 10 µM (SNB-75) was 70.2%, the inhibition at 10 µM (DU-145 [1]) was < 10% and the inhibition at 10 µM (NCI-H322M) was 12.8%. For the same molecule, the inhibition at 10 µM (OVCAR-5) was < 10%, the “PCE (Positive cytotoxic effect: ratio between number of cell lines with percentage growth inhibition from 10 to >100 and total number of cell lines)” value [2] was 30/58 and the “RGI % (Range of growth inhibition percentage)” value [2] was 79.75 to 11.78%. For the same molecule, the inhibition at 10 µM [2] was 17.4%.

Molecule CCn1cc(C(=O)O)c(=O)c2cc(F)c(N3CCN(S(=O)(=O)c4ccc(Cl)cc4Cl)CC3)cc21 [Compound 2a] has a GI50 (NCI/ADR-RES) of 3.28 µM, an inhibition at 10 µM (SF-539) of 91.4% and an inhibition at 10 µM (NCI-H460) of 89.1%. It also gave an inhibition at 10 µM (SF-268) of 75.4%, an inhibition at 10 µM (HCC-2998) of 69.4% and an inhibition at 10 µM (CCRF-CEM) of 97.2%. The inhibition at 10 µM (ACHN) was > 100%, the inhibition at 10 µM (SNB-75) was 25.2% and the inhibition at 10 µM (DU-145 [1]) was 88.4%. The inhibition at 10 µM (NCI-H322M) was > 100%, the inhibition at 10 µM (OVCAR-5) was 92.1% and the GI50 (IGROV1) was 2.33 µM. The GI50 (ovarian cancer) was 2.96 µM, the CC50 (ovarian cancer) was 76.7 µM and the “TGI (total growth inhibitory)” value (ovarian cancer) was 39.54 µM. The GI50 (SK-OV-3) was 3 µM, the GI50 (DU-145 [3]) was 2.81 µM and the GI50 (OVCAR-8) was 3.3 µM. It also gave a GI50 (SW-620) of 3.91 µM, a GI50 (renal cancer) of 2.73 µM and a CC50 (renal cancer) of 82.5 µM. The “TGI (total growth inhibitory)” value (renal cancer) was 23.97 µM, the GI50 (NSC lung cancer) was 2.49 µM and the CC50 (NSC lung cancer) was 73.2 µM. For the same molecule, the “TGI (total growth inhibitory)” value (NSC lung cancer) was 19.61 µM, the GI50 (colon cancer) was 3.15 µM and the CC50 (colon cancer) was 77.2 µM. For the same molecule, the “TGI (total growth inhibitory)” value (colon cancer) was 72.89 µM, the GI50 (KM12) was 3.42 µM and the GI50 (T-47D) was 3.11 µM. For the same molecule, the “PCE (Positive cytotoxic effect: ratio between number of cell lines with percentage growth inhibition from 10 to >100 and total number of cell lines)” value [2] was 56/58, the “RGI % (Range of growth inhibition percentage)” value [2] was >100.0 to 25.22% and the inhibition at 10 µM [2] was 94.2%. For the same molecule, the GI50 (SK-MEL-5) was 1.87 µM, the GI50 (melanoma) was 2.3 µM and the CC50 (melanoma) was 39.5 µM. For the same molecule, the “TGI (total growth inhibitory)” value (melanoma) was 6.36 µM, the GI50 (UACC-62) was 1.61 µM and the CC50 [4] was 57.5 µM. The GI50 [4] was 2.63 µM and the “TGI MG-MID (Full panel mean-graph midpoint)” value [4] was 14.12 µM.

Work on O=C(O)c1cn(C2CC2)c2cc(N3CCN(S(=O)(=O)c4ccc(Cl)c(Cl)c4)CC3)c(F)cc2c1=O [Compound 3b] yielded a GI50 (NCI/ADR-RES) of 4.01 µM, an inhibition at 10 µM (SF-539) of 88.6% and an inhibition at 10 µM (NCI-H460) of 94.2%. The inhibition at 10 µM (SF-268) was 80.4%, the inhibition at 10 µM (HCC-2998) was 75.2% and the inhibition at 10 µM (CCRF-CEM) was 83.1%. It also gave an inhibition at 10 µM (ACHN) of 95%, an inhibition at 10 µM (SNB-75) of 86.8% and an inhibition at 10 µM (DU-145 [1]) of 82.8%. The inhibition at 10 µM (NCI-H322M) was 78.7%, the inhibition at 10 µM (OVCAR-5) was 87.5% and the GI50 (IGROV1) was 2.73 µM. The GI50 (ovarian cancer) was 3.39 µM, the CC50 (ovarian cancer) was > 100 µM and the “TGI (total growth inhibitory)” value (ovarian cancer) was 88.90 µM. The GI50 (DU-145 [3]) was 4.31 µM, the GI50 (OVCAR-8) was 3.33 µM and the GI50 (SW-620) was 4.05 µM. For the same molecule, the GI50 (renal cancer) was 3.19 µM, the CC50 (renal cancer) was > 100 µM and the “TGI (total growth inhibitory)” value (renal cancer) was 87.07 µM. For the same molecule, the GI50 (NSC lung cancer) was 3.07 µM, the CC50 (NSC lung cancer) was > 100 µM and the “TGI (total growth inhibitory)” value (NSC lung cancer) was 84.28 µM. The GI50 (colon cancer) was 3.79 µM, the CC50 (colon cancer) was > 100 µM and the “TGI (total growth inhibitory)” value (colon cancer) was 87.41 µM. For the same molecule, the GI50 (KM12) was 3.62 µM, the GI50 (T-47D) was 3.77 µM and the “PCE (Positive cytotoxic effect: ratio between number of cell lines with percentage growth inhibition from 10 to >100 and total number of cell lines)” value [2] was 58/58. The “RGI % (Range of growth inhibition percentage)” value [2] was >100.0 to 46.49%, the inhibition at 10 µM [2] was 89.2% and the GI50 (SK-MEL-5) was 2.04 µM. For the same molecule, the GI50 (melanoma) was 2.54 µM, the CC50 (melanoma) was 87.1 µM and the “TGI (total growth inhibitory)” value (melanoma) was 52.41 µM. For the same molecule, the GI50 (UACC-62) was 1.75 µM, the CC50 [4] was 95.5 µM and the GI50 [4] was 3.09 µM. The “TGI MG-MID (Full panel mean-graph midpoint)” value [4] was 60.25 µM.

Source: patent EP2987533B1, “7-substituted piperazin-1-yl fluoroquinolone compounds, their use in the treatment of cancer, pharmaceutical compositions and a method for preparation” (priority 2014, dated 2016)
